Laboratory results published in patent EP2647628A1, “Substituted tricyclic compounds with activity towards ep1 receptors” (Almirall, S.A., priority 2012, dated 2013).

Molecular target: T1, human EP1 receptor (Homo sapiens, UniProt P34995)
T1 construct: expressed in transfected cells; host or cells: HEK-293 cell membranes
T1 sequence (P34995 1-402): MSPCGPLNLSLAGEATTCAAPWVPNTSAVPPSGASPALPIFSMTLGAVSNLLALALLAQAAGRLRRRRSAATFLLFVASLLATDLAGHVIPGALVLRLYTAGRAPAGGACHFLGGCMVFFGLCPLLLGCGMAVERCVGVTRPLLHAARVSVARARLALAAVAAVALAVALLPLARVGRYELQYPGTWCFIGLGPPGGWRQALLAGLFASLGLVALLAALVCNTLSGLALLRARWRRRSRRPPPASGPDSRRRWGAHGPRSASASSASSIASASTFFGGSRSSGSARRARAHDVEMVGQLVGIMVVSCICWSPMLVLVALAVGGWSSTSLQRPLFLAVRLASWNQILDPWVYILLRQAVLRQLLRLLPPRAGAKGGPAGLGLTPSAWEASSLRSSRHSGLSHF
Experiment: Human EP1 receptor radioligand binding assay
Conditions: [3H]-PGE2 (10 nM), transfected HEK-293 cell membranes, pH 6.0, 25 °C, 60 minutes; Ki by Cheng-Prusoff equation
Experimental: To investigate binding properties of EP1 receptor ligands to human EP1 receptor, transfected HEK-293 cell membranes and [3H]-PGE2 (Perkin Elmer) were used. In 96-well plates the assay was carried out with a total reaction volume of 250 µl, containing 25 µl of membrane suspension (30 µg protein/well), 25 µl of [3H]-PGE2 (10 nM) in either absence or presence of 25 µl of either buffer or PGE2 (10 µM) for total and non-specific binding, respectively. Binding buffer contained 10 mM MES, 1 mM MgCl2 and 1 mM EDTA at pH 6.0. Plates were incubated at 25 °C for 60 minutes. After the incubation period, 200 µl of incubate were transferred to MultiScreen HTS, FB plates (Millipore), filtered and plates were washed 6 times with ice-cold 10 mM MES, 1 mM MgCl2 and 1 mM EDTA at pH 6.0. Filters were dried and counted in a MicroBeta scintillation counter (Perkin-Elmer) using EcoScint liquid scintillation cocktail.
Percentage inhibition was calculated relating compounds activity to the 0% inhibition of the wells incubated with 10 nM [3H]-PGE2 alone (total binding) and 100% inhibition of the wells incubated with 10 nM [3H]-PGE2 plus 10 µM PGE2 (non-specific binding). Competition binding curves were carried out by assaying 6 different concentrations with duplicated points. The inhibition constant (Ki) of each compound was calculated by the Cheng-Prusoff equation: Ki = IC50 /(1+[L]/KD) [formula] where IC50 is the concentration of compound that displaces the binding of radioligand by 50%, [L] is the free concentration of radioligand and KD is the dissociation constant of each radioligand. IC50 values were obtained by fitting the data with non-linear regression using XIFit software (IDBS).

For `Cc1ccc2c(c1)[C@@H]1CCC[C@@H]1[C@H](c1ccc(C(=O)O)cc1)N2` (racemic) [EXAMPLE 04, 4-((3aS,4R,9bR)-2,3,3a,4,5,9b-hexahydro-8-methyl-1H-cyclopenta[c]quinolin-4-yl)benzoic acid], the Ki was 100 to 500 nM.
In the case of `COc1ccc2c(c1)[C@@H]1CCC[C@@H]1[C@H](c1ccc(C(=O)O)cc1)N2` (racemic) [EXAMPLE 07, 4-((3aS,4R,9bR)-2,3,3a,4,5,9b-hexahydro-8-methoxy-1H-cyclopenta[c]quinolin-4-yl)benzoic acid], the Ki is reported as < 100 nM.
With `O=C(O)c1ccc([C@@H]2Nc3ccc(Cl)cc3[C@@H]3CCC[C@@H]32)cc1` (single isomer, unassigned) [EXAMPLE 06a] the Ki was < 100 nM.
With `Cc1ccc2c(c1)[C@@H]1CCC[C@@H]1[C@H](c1ccc(C(=O)O)cc1C)N2` (single isomer, unassigned) [EXAMPLE 37a] the Ki was < 100 nM.
Work on `O=C(O)c1ccc([C@@H]2Nc3ccc(Br)cc3[C@@H]3CCC[C@@H]32)cc1` [EXAMPLE 02, 4-((3aS,4R,9bR)-8-bromo-2,3,3a,4,5,9b-hexahydro-1H cyclopenta[c]quinolin-4-yl)benzoic acid] yielded a Ki of 100 to 500 nM.
For `CCCc1ccc2c(c1)[C@@H]1CCC[C@@H]1[C@H](c1ccc(C(=O)O)cc1)N2` [EXAMPLE 12, 4-((3aS, 4R, 9bR)-2,3,3a, 4,5,9b-hexahydro-8-propyl-1H-cyclopenta[c]quinolin-4-yl)benzoic acid], the Ki was > 500 nM.
Work on `CC(C)c1ccc2c(c1)[C@@H]1CCC[C@@H]1[C@H](c1ccc(C(=O)O)cc1)N2` [EXAMPLE 18, 4-((3aS,4R,9bR)-2,3,3a,4,5,9b-hexahydro-8-isopropyl-1H-cyclopenta[c]quinolin-4-yl)benzoic acid] yielded a Ki of 100 to 500 nM.
For `N#Cc1ccc2c(c1)[C@@H]1CCC[C@@H]1[C@H](c1ccc(C(=O)O)cc1)N2` [EXAMPLE 19, 4-((3aS,4R,9bR)-8-cyano-2,3,3a,4,5,9b-hexahydro-1H-cyclopenta[c]quinolin-4-yl)benzoic acid], the Ki was > 500 nM.
In the case of `Cc1cc2c(cc1Cl)N[C@@H](c1ccc(C(=O)O)cc1)[C@H]1CCC[C@@H]21` [EXAMPLE 29, 4-((3aS,4R,9bR)-7-chloro-2,3,3a,4,5,9b-hexahydro-8-methyl-1H-cyclopenta[c]quinolin-4-yl)benzoic acid], the Ki is reported as > 500 nM.
`Cc1ccc2c(c1)[C@@H]1CCC[C@@H]1[C@H](c1ccc(C(=O)O)cc1)N2C` [EXAMPLE 30, 4-((3aS,4R,9bR)-2,3,3a,4,5,9b-hexahydro-5,8-dimethyl-1H-cyclopenta[c]quinolin-4-yl)benzoic acid] was tested, and the Ki was > 500 nM.
With `Cc1ccc2c(c1)[C@@H]1CCC[C@@H]1[C@H](c1ccc(C(=O)O)c(C)c1)N2` [EXAMPLE 36, 4-((3aS, 4R, 9bR)-2,3,3a, 4,5,9b-hexahydro-8-methyl-1H-cyclopenta[c]quinolin-4-yl)-2-methylbenzoic acid] the Ki was > 500 nM.
With `Cc1cc(C(=O)O)ccc1[C@@H]1Nc2ccc(C3CC3)cc2[C@@H]2CCC[C@@H]21` [EXAMPLE 43, 4-((3aS, 4R, 9bR)-8-cyclopropyl-2,3,3a, 4,5,9b-hexahydro-1H cyclopenta[c]quinolin-4-yl)-3-methylbenzoic acid] the Ki was 100 to 500 nM.
In the case of `Cc1ccc2c(c1)[C@@H]1CCC[C@@H]1[C@H](c1ccc(C(=O)O)cc1Cl)N2` [EXAMPLE 47, 3-chloro-4-((3aS, 4R, 9bR)-2,3,3a, 4,5,9b-hexahydro-8-methyl-1H-cyclopenta[c]quinolin-4-yl)benzoic acid], the Ki is reported as 100 to 500 nM.
Molecule `CCc1cc(C(=O)O)ccc1[C@H]1Nc2ccc(OC)cc2[C@@H]2CCC[C@H]12` [EXAMPLE 55, 3-ethyl-4-((3aS,4S,9bR)-2,3,3a,4,5,9b-hexahydro-8-methoxy-1H-cyclopenta[c]quinolin-4-yl)benzoic acid] has a Ki of 100 to 500 nM.
With `Cc1ccc2c(c1)[C@@H]1CCC[C@@H]1[C@@H](c1c(C)cc(C(=O)O)cc1C)N2` [EXAMPLE 56, 4-((3aS,4S,9bR)-2,3,3a,4,5,9b-hexahydro-8-methyl-1H cyclopenta[c]quinolin-4-yl)-3,5-dimethylbenzoic acid] the Ki was < 100 nM.
For `COc1ccc2c(c1)[C@@H]1CCC[C@@H]1[C@@H](c1c(C)cc(C(=O)O)cc1C)N2` [EXAMPLE 57, 4-((3aS,4S,9bR)-2,3,3a,4,5,9b-hexahydro-8-methoxy-1H-cyclopenta[c]quinolin-4-yl)-3,5-dimethylbenzoic acid], the Ki was < 100 nM.
For `Cc1ccc2c(c1)[C@@H]1CCC[C@@H]1[C@H](c1cc(C(=O)O)nn1C)N2` [EXAMPLE 62, 5-((3aS,4R,9bR)-2,3,3a,4,5,9b-hexahydro-8-methyl-1H-cyclopenta[c]quinolin-4-yl)-1-methyl-1H-pyrazole-3-carboxylic acid], the Ki was > 500 nM.
Molecule `COc1ccc2c(c1)[C@]1(C)CCC[C@@H]1[C@H](c1ccc(C(=O)O)cc1)N2` [EXAMPLE 69, 4-((3aS,4R,9bR)-2,3,3a,4,5,9b-hexahydro-8-methoxy-9b-methyl-1H-cyclopenta[c]quinolin-4-yl)benzoic acid] has a Ki of 100 to 500 nM.
`Cc1ccc2c(c1)[C@]1(C)CCC[C@@H]1[C@H](c1ccc(C(=O)O)cc1C)N2` [EXAMPLE 75, 4-((3aS, 4R, 9bR)-2,3,3a, 4,5,9b-hexahydro-8,9b-dimethyl-1H-cyclopenta[c]quinolin-4-yl)-3-methylbenzoic acid] showed a Ki of 100 to 500 nM.
